Molecular target: T1, lysyl oxidase (LO) (Bos taurus, UniProt P33072)
T1 construct: per mature LO molecule (32 kD); from tissue
T1 sequence (P33072 170-418): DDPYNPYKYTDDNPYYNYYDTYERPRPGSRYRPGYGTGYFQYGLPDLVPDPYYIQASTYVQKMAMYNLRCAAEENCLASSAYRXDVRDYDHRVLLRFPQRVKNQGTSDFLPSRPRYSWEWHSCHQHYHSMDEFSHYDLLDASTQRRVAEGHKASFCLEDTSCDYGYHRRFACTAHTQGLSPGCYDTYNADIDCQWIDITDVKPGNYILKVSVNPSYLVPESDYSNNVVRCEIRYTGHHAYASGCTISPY
Test: LO-dependent H2O2 release, horseradish peroxidase-coupled fluorescence assay (substrate potential for LO)
Type: biochemical
Conditions: 55° C. and 37° C.
Method: The oxidation of a primary amine substrate by LO yields stoichiometric amounts of the corresponding aldehyde, hydrogen peroxide and ammonia, as shown: RCH2NH2+O2+H2O→RCHO+H2O2+NH3 (Kagan, 1986). To assess the substrate potential of FGF2, LO-dependent H2O2 release was monitored in assays using FGF2 as the sole substrate, using both the optimum temperature for LO activity of 55° C. and the physiological temperature of 37° C. (Trackman et al., 1981).
LO reaction with FGF2 as a substrate was assessed by a horseradish peroxidase-coupled fluorescence assay for H2O2 production. Reaction mixtures contained 0.25 mg of sodium homovanillate(HVA), 40 μg of HRP, and FGF2 at doses as indicated below in 0.05 M sodium borate buffer, pH 8.2, in a final volume of 2 ml. Assays were initiated by the addition of LO to reaction mixtures. H2O2 release was continuously monitored at excitation and emission wavelengths of 315 and 425 nm, respectively, at a constant temperature of 55° C. or 37° C., as specified, in the thermostatted cuvette chamber of an SLM Aminco Bowman Series 2 Luminescence Spectrometer. All activity data were corrected for background rates of H2O2 release determined in complete assay mixtures supplemented with 200 μM BAPN, an irreversible inhibitor of LO. In FIG. 4, solid curves represent the time course of H2O2 release at 55° C. in the reaction of 0.16 μM LO with 0.23 (a), 0.45 (b) and 0.9 (c) μM FGF2, respectively. Dotted curve (d) represents the time course of H2O2 release in the reaction of 0.16 μM LO with 0.9 μM FGF2 at 37° C. The same data were obtained from three separate experiments.
Using the fluorometric assay (Trackman et al., 1981) to monitor LO-dependent H2O2 release in vitro, the substrate potential of other growth factors was also assessed. Major members of the FGF family tested included FGF 1, 4, 5, 6, 7 and EGF (note: All factors are human recombinant forms purchased from R & D Systems, Inc., Minneapolis, Minn.).
A human recombinant disulfide-linked dimer of VEGF165 (MW: 42 kDa)(R & D Systems) as a sole substrate was tested by using the standard in vitro LO catalysis assays as described above for FIG. 4 (Trackman et al., 1981). Curves represent the time course of H2O2 release at 55° C. (a) or 37° C. (b) in the reaction of 0.10 μM LO with 0.45 μM VEGF165. All activity data were corrected for background rates of H2O2 release determined in complete assay mixtures supplemented with the same amounts of LO preincubated with 100 μM BAPN for 15 min at 37° C. The same data were obtained from three separate experiments.
The standard in vitro LO catalysis assays as described above for FIG. 4 (Trackman et al., 1981) using human recombinant PDGF-AB (R & D Systems) as a sole substrate was tested. […] In FIG. 19, curves represent the time course of H2O2 release at 55° C. (a) and 37° C. (b) in the reaction of 0.11 μM LO with 0.46 μM PDGF-AB, respectively. All activity data were corrected for background rates of H2O2 release determined in complete assay mixtures supplemented with the same amounts of LO preincubated with 100 μM BAPN for 15 minutes at 37° C. The same data were obtained from three separate experiments.
To analyze the substrate potential of Tat, the standard in vitro LO catalysis assays as described in FIG. 4 (Trackman et al., 1981) was performed at the optimum temperature of 55° C. and at the physiological temperature of 37° C. A recombinant Tat with 9 lysines in a total of 86 amino acids was used as a sole substrate. FIG. 12A represents a dose and temperature-dependent response. Curves represent the time course of H2O2 release at 55° C. (solid) or 37° C. (dotted) in the reaction of 0.10 μM LO with 0.22 (a and d), 0.43 (b and e) and 0.85 (c and f) μM Tat, respectively. All activity data were corrected for background rates of H2O2 release determined in complete assay mixtures supplemented with the same amounts of LO preincubated with 100 μM BAPN for 15 min at 37° C. […]

Which results are given for `N#CCCN` [BAPN, β-Aminopropionitrile, reference compound]?
effect on H2O2 release when added after the reaction of LO with Tat was initiated (100 μM BAPN added at 200 seconds): failed to block H2O2 release; inhibition of the reaction of LO with Tat (LO preincubated with 100 μM BAPN for 5 minutes): totally inhibited

— US20030211076A1, “Compositions and methods for treatment of proliferative disorders” (priority 2003, published 2003)
